These results are taken from patent US20260152777A1, “METHOD FOR PRODUCING EPIGALLOCATECHIN GALLATE MONOGLUCOSIDE” (GIVAUDAN SA, priority 2022, published 2026).

Data set [1] concerns human skin explants. The experiment in a line: Whitening activity (ex vivo), Fontana-Masson staining for melanin quantification. The format is cell-based. The conditions noted are these: at 2%, topical, 7 days. The procedure: Fresh human skin explants were obtained from skin phototype III and VI donors, aged of 46±25 years. […] Kojic acid (Sigma-Aldrich) at 2% was topically applied and incubated under the same conditions, serving as positive control. The untreated condition was treated with the vehicle (distilled water). The medium was renewed every other day. After the end of culture, the skin explants were sampled and put in formalin before being dehydrated and embedded in paraffin for Fontana-Masson staining.
Skin explants fixed in formalin were dehydrated and embedded in paraffin. Sections of 4 μm thickness were dewaxed and then stained by Fontana-Masson silver method for melanin.
Images were collected using an Axio Observer Inverted fluorescence microscope (Zeiss) in bright field mode.
Melanin was quantified using two open source optical imaging software programs. Photomicrographs (jpeg format) of Fontana-Masson tissue sections were opened in GIMP-GNU Image Manipulation Program. The brown-black color signals corresponding to melanin grains on stained sections were selected, copied and pasted into a new image and saved as a jpeg file; this jpeg file consists solely of black/brown (melanin grains) on a white background. This image was subsequently opened using the ImageJ program. The image was then inverted and the mean intensity was obtained.

Data set [2] in a line: Skin penetration by Raman spectroscopy (ex vivo). The format is in vitro ADME, human. On the procedure: At the end of the incubation period, the skin explants were frozen in Optimal Cutting Temperature (OCT; VWR) at −80° C. and then cut longitudinally using a cryotome with a thickness of 20 μm. For each explant, 3 tissue sections were selected and deposited on a CaF2 support for Raman imaging analysis. The processing of corrected data maps was performed by using a software based on least squares fitting method that operates in the Matlab environment. This method involves mathematical modeling of reference spectra in the overall spectral image to determine the contribution and distribution of these spectra within the image. The reference spectra were the modelled spectra of the following products: Aglycone, glucoside mixture, 4′-O-α-monoglucoside and untreated skin control.

In data set [3] the test system is melanogenesis pathway. The conditions noted are these: 0.01% (v/v), 24 h, NHEK-NHEM co-culture, normalized to B2M. The procedure: To evaluate the impact of preparation of the present invention on melanogenesis, a co-culture study with keratinocytes and melanocytes was conducted.
The cell culture was realized with primary cells isolated from biopsies. Cells were co-cultured with a ratio of 10 keratinocytes to 1 melanocyte. Both cell types were derived from a donor.
The product EGCG MONOG 0.01% was filtered and diluted in Keratinocyte Growth Medium 2 (supplied by Promocell).
Cells were seeded in 6-well plates in the presence of the Keratinocyte Growth Medium 2 for 24 h. After seeding, a treatment in the presence of EGCG MONOG 0.01% was applied for 24 h. Untreated wells were used as a basal reference in order to compare the impact of EGCG MONOG and gene expression after 24 h of incubation.
After treatment, the RNA from the cells were extracted using TRIzol™ (available from Sigma) and reverse-transcribed into cDNA. The cDNA was mixed with different primers of interest representative of the melanogenesis pathway (PrimePCR custom plate, pigmentation, Biorad). The expression of the mRNA was measured by semi-quantitative PCR on a Bio-Rad CFX96Real Time PCR System (available from BioRAD). The expression level of the mRNA was calculated and normalized with reference gene (B2M).
The values were reported relative to the untreated control to express an activating or inhibitory effect.

Data set [4] concerns Lactobacillus acidophilus. The experiment in a line: Growth promotion of Lactobacillus acidophilus (OD600). It is filed as cell-based. The conditions noted are these: MRS broth 50% in PBS, 48 hours, anaerobic. On the procedure: In order to further investigate the effect of the active of the present invention on bacteria, the growth of Lactobacillus acidophilus in MRS medium supplemented with different concentrations of EGCG MONOG was evaluated for 48 hours.
L. acidophilus (DSM 20079) was cultivated at 37° C. under anaerobic conditions on De Man, Rogosa Sharpe (MRS) agar. After bacterial amplification in culture medium, for each bacterial strain, a bacterial suspension was prepared using the assay medium (MRS broth 50% in PBS) and adjusted to an optical density at 600 nm (OD600 nm) of 0.2. The bacterial suspension was then transferred to 96-well plates, some of which contained the test compounds from 0.015% to 1%. The strain cultivated with powdered milk at 0.01% served as a positive control.
Bacterial cultures were incubated at 37° C. under agitation (˜280 rpm) and under anaerobic condition. OD600 nm were read in kinetic for 48 hours using a microplate spectrophotometer (EPOCH2, BioTek Instruments) to analyze the bacterial growth.
All experimental conditions were performed in triplicate.

“Also recorded” adds a separate entry of the source.

As for `O=C1O[C@H]([C@@H](O)CO)C(O)=C1O` [Ascorbic acid, ascorbic acid], the “reduction of melanin content compared to untreated” value in data set [1] came to 28%.

For `O=C(O[C@@H]1Cc2c(O)cc(O)cc2O[C@@H]1c1cc(O)c(O[C@H]2O[C@H](CO)[C@@H](O)[C@H](O)[C@H]2O)c(O)c1)c1cc(O)c(O)c(O)c1` [epigallocatechin gallate 4′-O-α-monoglucoside], the “skin penetration higher than that of the aglycone” value in data set [2] (2%, 8 hours of topical application, skin explants, relative to aglycone) is listed as “+90%”. Further, in data set [2] (2%, 8 hours of topical application, skin explants, relative to glucoside mixture), the “skin penetration higher than that of the glucoside mixture” value is “+20%”. For the same compound, the “quantity accumulated in the skin relative to the aglycone” value in data set [2] (at depth of about 65 µm) is listed as “almost double that of the aglycone”. The “bioavailability in the skin” value in data set [2] (compared to aglycone (and glucoside mixture)) was “better skin bioavailability than the aglycone and the glucoside mixture; also recorded: much higher bioavailability in the skin than the respective aglycones”. In data set [2] (skin explants, Raman), the “depth of accumulation in the skin / skin penetration depth” value is on record as “about 65 µm”. For the same compound, in data set [3], the “AP3B1 mRNA expression vs untreated co-culture” value was −59%, the “DTNBP1 mRNA expression vs untreated co-culture” value is −59%, the “EDNRB mRNA expression vs untreated co-culture” value is recorded as −68% and the “F2RL1 mRNA expression vs untreated co-culture” value is listed as −49%. In data set [3], the “KIT mRNA expression vs untreated co-culture” value is reported as −93%, the “LYST mRNA expression vs untreated co-culture” value is given as −48%, the “MC1R mRNA expression vs untreated co-culture” value is −96% and the “MITF mRNA expression vs untreated co-culture” value is on record as −108%. In addition, in data set [3], the “PMEL mRNA expression vs untreated co-culture” value was −212%, the “SOX10 mRNA expression vs untreated co-culture” value is −60% and the “TYR mRNA expression vs untreated co-culture” value was −58%. The “increase of growth of Lactobacillus acidophilus vs culture without EGCG MONOG” value (“increase … vs culture without EGCG MONOG” below) in data set [4] (0.13%) came to 6%. For the same compound, in data set [4] (0.4%), the “increase … vs culture without EGCG MONOG” value worked out at 9%. Besides, the “increase … vs culture without EGCG MONOG” value in data set [4] (1%) came to 27%.
